Series [1] concerns rabbit pulmonary artery, tyramine-induced noradrenaline release. The following applies: for IC50: read-out: IC50, inhibition of noradrenaline releasing effect of tyramine.
The next series in a line: in vivo. Conditions: rat.
A short description of series [2]: effect exerted on motility, on rats (spontaneous passings in shuttle-box). In kind it is in vivo, rat. How it is done:
II/4. Determination of effect exerted on motility, on rats
The test is carried out in a Shuttle-box without introducing current and light. The number of spontaneous passings over from side of the box to the other is registered and summarized by the apparatus for an observation period of 30 minutes. The test is carried out on groups comprising […] CFY rats of both sexes weighing […]. The test compound of the Formula I is added prior to the test subcutaneously, together with tetrabenazine and desmethyl-imiprmine (DMI) reference compounds, respectively.

Series [3] is described as follows: effect exerted on food intake, in rats. The class given is in vivo, rat. Conditions: 5 mg/kg, first hour.
Series [4] relates to noradrenaline uptake, nucleus free supernatant of rat cortex. Nature of the series: 3H-noradrenaline uptake in the nucleus free supernatant of rat cortex. In kind it is biochemical. Conditions: 37° C., 5 minutes. How it is done:
II/7. Determination of ^3 H-noradrenaine uptake in the nucleus free supernatant of rat cortex (in vivo)
The cortex is homogenized in 0.32M saccharose with a teflon potter, the cell nucleus is sedimented by centrifuging at 0° C. with 1000 g for 20 minutes; the supernatant thus obtained is used for the test. The intake is accomplished in a KrebsHeinseleit solution saturated with carbogen, in a final volume of 1 ml, at a ^3 H-noradrenaline concentration of […]. Pre-incubation and incubation are carried out at 37° C. for 5 minutes each. The reaction is stopped by adding 4 ml of ice-cold Krebs solution and the tissue is separated by GF/B filtration. Non-specific uptake is determined by using 10^-4 M nisoxetine at 37° C. The radioactivity of the GF/B filter-paper is determined by liquid scintillation measurement in a toluene-PPO-POPOPtritone mixture.

The subject of series [5] is tetrabenazine-induced depression. As to the kind of experiment: antagonism of tetrabenazine-induced depression in learning test: jumping test. In kind it is in vivo, rat. The following applies: 5 mg/kg tetrabenazine. From the text:
(§1) II/3 Determination of antagonism of tetrabenazine-induced depression, in learning test, on rats
a) Jumping test. Method: J. Knoll, B. Knoll: Arzneimittel Forschung 8, 339 (1958), 9, 633 (1959).

Series [6] shares this test system. As to the kind of experiment: antagonism of tetrabenazine-induced depression in learning test: shuttle-box test. In kind it is in vivo, rat. The following applies: N = 12.
Text: as §1
Method: B. Knoll, J. Knoll: Pol. J. Pharmacol. Pharm. 34, 17-23 (1982).
According to this test depression caused by tetrabenazine can be antagonized by the compounds of the Formula I. In Table 3 the numerical values of the series of test carried out by using the compound according to Example 7 are disclosed.

Series [7] is described as follows: psychostimulant effect in rats: shuttle-box test. The class given is in vivo, rat.
The mark [8] stands for this setting: 10 mg/kg s.c., 30 minutes observation.
The mark [9] stands for this setting: 1st day, tetrabenazine 0.5 mg/kg s.c. daily.
The mark [10] stands for this setting: 2nd day, tetrabenazine 0.5 mg/kg s.c. daily.
Setting [11] is: 3rd day, tetrabenazine 0.5 mg/kg s.c. daily.
The mark [12] stands for this setting: 4th day, tetrabenazine 0.5 mg/kg s.c. daily.
Setting [13] is: 5th day, tetrabenazine 0.5 mg/kg s.c. daily.
Setting [14] is: 1st day, tetrabenazine 0.5 mg/kg + 10 mg/kg compound, s.c. daily.
[15] abbreviates: 2nd day, tetrabenazine 0.5 mg/kg + 10 mg/kg compound, s.c. daily.
Setting [16] is: 3rd day, tetrabenazine 0.5 mg/kg + 10 mg/kg compound, s.c. daily.
Where [17] appears, read: 4th day, tetrabenazine 0.5 mg/kg + 10 mg/kg compound, s.c. daily.
Where [18] appears, read: 5th day, tetrabenazine 0.5 mg/kg + 10 mg/kg compound, s.c. daily.

Some results are limits rather than exact numbers.

For orientation: IC50 means the concentration that gives 50% inhibition. Usually LD50 stands for the dose expected to kill half of the subjects tested. A high value points to a less toxic substance. The mortality is the share of the test organisms that died. The low end stands for a weak lethal effect, the high end for a strong lethal effect.

`CCCC(Cc1ccccc1)NCCCO` (stereo not drawn) [Example 2, N-(3-hydroxypropyl)-1-phenyl-2-pentylamine]: the IC50 in series [1] amounted to 368 nM. The LD50 in “in vivo” (iv) was 50 mg/kg; in the series “in vivo” (sc), above 200 mg/kg. Besides, the mortality in “in vivo” (sc) stood at 0%.
As for `CCCNC(Cc1ccccc1)c1ccccc1.Cl` (stereo not drawn) [Example 3, N-propyl-1,2-diphenyl-ethylamine-hydrochloride], the motility result in series [2] (setting [8]) is given as “do not increase motility”. For the same compound, in series [1], the IC50 is 7470 nM. In “in vivo” (sc), this compound gave an LD50 of 75 mg/kg and a mortality of 0%.
Take `CCCCC(Cc1ccccc1)NCCC` (stereo not drawn) [Example 11]: the motility entry in series [2] (setting [8]) is recorded as “do increase motility”. The food intake result in series [3] is “decreasing effect being approximately identical with that of about 0.5 mg/kg of amphetamine”. In series [4], the IC50 stood at 100 nM. For the same compound, the “IC50, inhibition of noradrenaline releasing effect of tyramine” value in series [1] is given as “can not be given”. Moreover, the LD50 in “in vivo” (sc) amounted to 110 mg/kg.
For the compound `CCC(Cc1ccccc1)NC1CCCCC1` (stereo not drawn) [Example 9], the IC50 in series [1] was 799 nM. In addition, the LD50 in the series “in vivo” (sc) came out at 160 mg/kg.
For the compound `CCCCCCC(Cc1ccccc1)NCCC` (stereo not drawn) [Example 13], in series [1], the IC50 came to 501 nM. In “in vivo” (sc), this compound had an LD50 above 50 mg/kg and a mortality of 0%.
`C#CCN(C)[C@H](C)Cc1ccccc1` [Example 1-deprenyl, reference compound]: in series [4], the IC50 was 7000 nM.
In the case of `CCCCC(Cc1ccccc1)NC(C)Cc1ccccc1` (stereo not drawn) [Example 12], in series [1], the IC50 was 3460 nM. For the same compound, the LD50 was 16 mg/kg in the series “in vivo” (iv) and above 25 mg/kg in “in vivo” (sc).
For `CCNC(CC)Cc1ccccc1` (stereo not drawn) [Example 8], in that order: 1890 nM, 46 mg/kg and 195 mg/kg.
Take `CNCCCN1c2ccccc2CCc2ccccc21` [DMI, desmethyl-imiprmine, reference compound]: in series [2] (DMI reference), the “effect on motility and on tetrabenazine induced depression of motility” value was “inhibitory by itself rather than antagonistic against tetrabenazine induced depression of motility”. The IC50 in series [4] lay in the range of 1 to 5 nM.
For `CCCC(Cc1ccccc1)NC(C)C.Cl` (stereo not drawn) [Example 1, N-iso-propyl-1-phenyl-2-pentylamine-hydrochloride], in series [1], the IC50 came to 7470 nM. Moreover, the LD50 in “in vivo” (sc) was found to be 135 mg/kg.
Consider `COc1cc2c(cc1OC)C1CC(=O)C(CC(C)C)CN1CC2` (stereo not drawn) [tetrabenazine, reference compound], for which the “inhibition of the solid conditioned reflex” value in series [5] is on record as “completely inhibited”. Also, the “F+ = % of animals showing a conditioned reaction” value in series [6] (setting [9]) is 9.58%; in series [6] (setting [10]), 8.50%; in series [6] (setting [11]) it was 11.42%; in series [6] (setting [12]), 9.8%; in series [6] (setting [13]) it was 17.67%. Moreover, the “IR = number of intersignal reactions” value amounted to 10.25 in series [6] (setting [9]); 8.33 in series [6] (setting [10]); 4.67 in series [6] (setting [11]); 4.50 in series [6] (setting [12]); 6.92 in series [6] (setting [13]). The “f+ = % of animals responding to unconditioned stimulus” value in series [6] (setting [9]) is recorded as 31.25%; in series [6] (setting [10]), 30.75%; in series [6] (setting [11]) it was 15.83%; in series [6] (setting [12]), 17.83%; in series [6] (setting [13]) it was 12.58%. The “f- = % of animals which do not respond even to unconditioned stimulus” value in series [6] (setting [9]) was 59.17%; in series [6] (setting [10]), 60.75%; in series [6] (setting [11]) it was 72.75%; in series [6] (setting [12]), 73.08%; in series [6] (setting [13]), 69.75%. Also, the motility result in series [2] (1 mg/kg tetrabenazine) is recorded as “motility inhibiting effect”.
As to `CCCC(Cc1ccccc1)NC` (stereo not drawn) [Example 10], in series [1], the IC50 was determined as 1800 nM. The LD50 was determined as 18 mg/kg in “in vivo” (iv) and 175 mg/kg in the series “in vivo” (sc).
`COCCNC(C)Cc1ccccc1` (stereo not drawn) [Example 7, N-(2-methoxyethyl)-1-phenyl-2-propyl-amine]: the “F+ = % of animals showing a conditioned reaction” value was 34.60% in series [6] (setting [14]); 62.20% in series [6] (setting [15]); 69.20% in series [6] (setting [16]); 64.90% in series [6] (setting [17]); 76.10% in series [6] (setting [18]). The “IR = number of intersignal reactions” value came to 10.50 in series [6] (setting [14]); 14.70 in series [6] (setting [15]); 21.30 in series [6] (setting [16]); 14.30 in series [6] (setting [17]); 16.80 in series [6] (setting [18]). Moreover, the “f+ = % of animals responding to unconditioned stimulus” value in series [6] (setting [14]) came out at 49.80%; in series [6] (setting [15]), 21.00%; in series [6] (setting [16]), 9.80%; in series [6] (setting [17]) it was 17.70%; in series [6] (setting [18]), 8.50%. In addition, the “f- = % of animals which do not respond even to unconditioned stimulus” value in series [6] (setting [14]) was 16.40%; in series [6] (setting [15]), 16.80%; in series [6] (setting [16]) it was 21.00%; in series [6] (setting [17]), 17.40%; in series [6] (setting [18]), 15.40%. In series [1], the IC50 came out at 14100 nM. The compound also gave an LD50 in “in vivo” (sc) above 200 mg/kg. Besides, the mortality in the series “in vivo” (sc) was 0%.
For `CCCNC(CCC)Cc1ccccc1` (stereo not drawn) [Example 4, N-propyl-1-phenyl-2-pentylamine], the general motility result in series [7] (0.5 mg/kg daily) was “without signs of increased general motility”. Further, the “performance over the control” value in series [7] (0.5 mg/kg daily) is “significant increase of performance over the control”. Further, the “increase of the intersignal reactions” value in series [7] (15 mg/kg daily) is “moderate”. Further, in series [7] (15 mg/kg daily, complete test-period), the learning and retention entry was “increased learning and retentions from the very first day”. Moreover, the “maintenance of acquired performance after termination of treatment” value in series [7] (15 mg/kg, one-week learning period, 6 weeks after termination) is reported as “completely maintain the performance acquired”. Further, the “antagonism of motility inhibiting effect of 1 mg/kg of tetrabenazine” value in series [2] (1 mg/kg s.c.) was “completely antagonized”. In addition, in series [2] (setting [8]), the motility result is “do increase motility”. Further, the food intake entry in series [3] is on record as “decreasing effect being approximately identical with that of about 0.5 mg/kg of amphetamine”. Moreover, the results for the IC50 in series [4] and in series [1] were 50 nM and 1220 nM, respectively. For the same compound, the LD50 is 27 mg/kg in the series “in vivo” (iv), 270 mg/kg in the series “in vivo” (po) and 50 mg/kg in “in vivo” (sc).
For `CCCNC(Cc1ccccc1)Cc1ccccc1.Cl` [Example 5, N-propyl-1,3-diphenyl-2-propylamine-hydrochloride], the motility entry in series [2] (setting [8]) is reported as “do increase motility”. Further, in “in vivo” (sc), the LD50 was above 150 mg/kg and the mortality stood at 0%.

These data come from patent publication US5075338A (priority 1986, dated 1991).
